Experimental data published in article PMC7417534, “Cytochrome P450 inhibition potential and initial genotoxic evaluation of 14-O-[(4,6-diaminopyrimidine-2-yl)thioacetyl] mutilin” (Scientific Reports, 2020).

How the values were obtained:
[1] = system: PPARα mRNA; experiment: PPARα mRNA expression in Hep G2 cells (real-time PCR); assay type: cell-based, human; conditions: 2, 4 and 12 h, three doses
Procedure: (§1) The logarithmic growth phase Hep G2 cells were seeded into 12-well plastic plates at a density of […]. After incubation at 37 °C under 5% CO2 for 24 h, the media were then replaced with 1 mL of serial dilutions of the DPTM (4.98, 0.16 and 0.08 mM) in fresh media. When cells were incubated for 2, 4 and 12 h at 37 °C under 5% CO2, the RNA was isolated using the Trizol reagent according to the manufacturer’s protocol. Total RNA (5 μL) was transcribed into cDNA by using the PrimeScript RT reagent Kit (Perfect Real Time). The obtained cDNA (5 μL) was added for 45 cycles of PCR amplification to detect the mRNA expression (the primers and sequences used herein were given in Table 3) using the ABI Villa TM7Dx real-time PCR system (Gaithersburg, USA). Glyceraldehyde-3-phosphate dehydrogenase (GAPDH) was used as reference gene. All reactions were performed in a final volume of 20 μL (10 μL of 2 × SYBR Green Real-time PCR Master Mix, 2 μL of cDNA and 2 μL of the primers and 6 μL DEPC water) and executed in triplicate.

[2] = system: CYP1A2 mRNA; experiment: CYP1A2 mRNA expression in Hep G2 cells (real-time PCR); assay type: cell-based, human
Procedure: as §1

[3] = system: Hep G2 cells; experiment: MTT cytotoxicity assay on Hep G2 cells; assay type: cell-based, human; conditions: Homo sapiens, HepG2, 24 h incubation, read-out: IC50 value, cell viability (MTT)
Procedure: (§2) Intrinsic toxicity of DPTM was conducted as described in the literature[36]–[38] with some modifications. […] After proliferating to logarithmic growth phase at 37 °C under 5% CO2, cells were seeded to a new 96-well plate with a density of […] and cultured for 24 h at the same condition. The media were replaced with 100 μL of serial dilutions of DPTM (10 mg DPTM was dissolved in 1 mL 1% DMSO to a solution and then diluted two-fold with distilled water to provide 19.91, 9.96, 4.98, 2.49, 1.25, 0.62, 0.31, 0.16 and 0.08 mM serial dilutions). The blank group only used 1% DMSO to replace the media. The obtained mixture was incubated for 24 h. After that, all media in cells were removed and 20 μL of MTT reagent was added for an additional 4 h. Then, supernatant fraction was removed and 100 μL dimethyl sulfoxide (DMSO) was added, followed by incubation at 37 °C for 15 min. The absorbance of each well was determined by a spectrophotometer at dual wavelengths of 570 and 279 nm for the background. The viability percentage was calculated by the following formula: cell viability % = (ODsample − ODblank/ODcontrol − ODblank) × 100. A sigmoid-shaped curve was fitted to the data, and the IC50 was calculated by fitting the Hill equation to the data with nonlinear regression (least-squares best fit modelling) using GraphPad Prism 4 (GraphPad Software Inc., San Diego, USA). […]

[4] = MTT cytotoxicity assay on Hep G2 cells; assay type: cell-based, human; conditions: human, DPTM 4.98 mM, read-out: cell viability
Procedure: as §2

[5] = biological target: T1, CYP2E1 (Homo sapiens, UniProt P05181); experiment: Cocktail CYP inhibition in human liver microsomes, CYP2E1 (chlorzoxazone); assay type: in vitro ADME; conditions: cocktail method, read-out: IC50 values, CYP2E1 in HLMs
T1 construct: containing 100 μL RLMs or HLMs; tissue Research Institute for Liver Diseases (Shanghai) Co., Ltd; host or cells: pooled human liver microsomes
T1 sequence (P05181 whole entry): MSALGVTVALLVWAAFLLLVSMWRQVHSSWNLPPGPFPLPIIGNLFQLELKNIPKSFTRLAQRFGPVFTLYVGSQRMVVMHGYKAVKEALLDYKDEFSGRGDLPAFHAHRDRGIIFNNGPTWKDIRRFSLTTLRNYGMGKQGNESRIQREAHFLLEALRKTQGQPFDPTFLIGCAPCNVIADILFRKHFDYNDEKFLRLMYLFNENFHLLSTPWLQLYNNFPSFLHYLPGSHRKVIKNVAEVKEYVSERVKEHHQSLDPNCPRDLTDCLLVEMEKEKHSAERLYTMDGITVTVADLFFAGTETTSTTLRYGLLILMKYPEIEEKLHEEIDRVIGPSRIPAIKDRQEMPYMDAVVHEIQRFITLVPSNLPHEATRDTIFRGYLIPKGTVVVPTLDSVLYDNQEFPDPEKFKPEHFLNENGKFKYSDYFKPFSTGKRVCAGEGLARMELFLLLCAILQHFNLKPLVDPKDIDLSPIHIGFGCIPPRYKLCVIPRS
Procedure: (§3) We used the cocktail method to study the inhibition activities of DPTM against CYP enzymes in RLMs and HLMs with slight modification. DPTM (250 μmol) was dissolved in 1.25 mL methanol to a solution and then diluted with methanol and water to 2, 10, 20, 100, 200, 400, 1,000 and 2000 μM, respectively. The obtained serial dilutions (10 μL) were added to the incubation mixtures (200 μL total volume), containing 100 μL RLMs or HLMs (final concentration was 5 μg/μL, respectively), 10 μL glucose-6-phosphate (final concentration was 1 mM), 10 μL glucose-6-phosphate dehydrogenase (final concentration was 0.1 U/L), 20 μL potassium phosphate buffer (final concentration was 0.01 M) and 20 μL MgCl2 (final concentration was 2 mM), to give the final concentrations were 0.1, 0.5, 1, 5 10, 20, 50, and 100 μM, respectively. For the groups that in the absence of DPTM, 10 μL methanol (1%) replaced the DPTM and was added to the incubation mixtures. […] The final concentration of methanol in all the incubation mixtures, including the blank group, was […]. […] The determined metabolic substrates were used for calculating the relative enzyme activity (Erel) by the following formula: Erel (%) = Ci(n)/Ci(0) × 100%, in which Ci(n) was the determined metabolic substrates in the presence of varying concentrations of DPTM and Ci(0) was the determined metabolic substrates in the absence of DPTM. […]

[6] = biological target: T2, CYP2E1 (Rattus norvegicus, UniProt P05182); experiment: Cocktail CYP inhibition in rat liver microsomes, CYP2E1 (chlorzoxazone); assay type: in vitro ADME; conditions: cocktail method, read-out: IC50 values, CYP2E1 in RLMs
T2 construct: containing 100 μL RLMs or HLMs; tissue Research Institute for Liver Diseases (Shanghai) Co., Ltd; host or cells: male SD rat liver microsomes
T2 sequence (P05182 whole entry): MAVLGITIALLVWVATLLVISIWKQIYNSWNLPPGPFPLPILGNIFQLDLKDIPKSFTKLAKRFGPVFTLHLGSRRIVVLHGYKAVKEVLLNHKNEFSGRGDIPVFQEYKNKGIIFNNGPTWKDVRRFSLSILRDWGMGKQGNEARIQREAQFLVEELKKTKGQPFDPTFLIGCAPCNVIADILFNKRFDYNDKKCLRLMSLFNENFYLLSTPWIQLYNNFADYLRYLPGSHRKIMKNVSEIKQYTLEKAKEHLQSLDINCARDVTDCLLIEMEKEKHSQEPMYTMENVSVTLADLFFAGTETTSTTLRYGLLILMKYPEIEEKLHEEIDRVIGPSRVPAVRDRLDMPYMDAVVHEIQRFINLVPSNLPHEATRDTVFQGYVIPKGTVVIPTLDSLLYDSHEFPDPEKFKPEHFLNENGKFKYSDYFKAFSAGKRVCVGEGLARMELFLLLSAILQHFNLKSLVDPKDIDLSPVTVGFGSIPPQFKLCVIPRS
Procedure: as §3

[7] = system: AhR mRNA; experiment: AhR mRNA expression in Hep G2 cells (real-time PCR); assay type: cell-based, human
Procedure: as §1

[8] = biological target: T3, CYP2C9 (Homo sapiens, UniProt P11712); experiment: Cocktail CYP inhibition in human liver microsomes, CYP2C9 (tolbutamide); assay type: in vitro ADME; conditions: cocktail method, read-out: IC50 values, CYP2C9 in HLMs
T3 construct: containing 100 μL RLMs or HLMs; tissue Research Institute for Liver Diseases (Shanghai) Co., Ltd; host or cells: pooled human liver microsomes
T3 sequence (P11712 whole entry): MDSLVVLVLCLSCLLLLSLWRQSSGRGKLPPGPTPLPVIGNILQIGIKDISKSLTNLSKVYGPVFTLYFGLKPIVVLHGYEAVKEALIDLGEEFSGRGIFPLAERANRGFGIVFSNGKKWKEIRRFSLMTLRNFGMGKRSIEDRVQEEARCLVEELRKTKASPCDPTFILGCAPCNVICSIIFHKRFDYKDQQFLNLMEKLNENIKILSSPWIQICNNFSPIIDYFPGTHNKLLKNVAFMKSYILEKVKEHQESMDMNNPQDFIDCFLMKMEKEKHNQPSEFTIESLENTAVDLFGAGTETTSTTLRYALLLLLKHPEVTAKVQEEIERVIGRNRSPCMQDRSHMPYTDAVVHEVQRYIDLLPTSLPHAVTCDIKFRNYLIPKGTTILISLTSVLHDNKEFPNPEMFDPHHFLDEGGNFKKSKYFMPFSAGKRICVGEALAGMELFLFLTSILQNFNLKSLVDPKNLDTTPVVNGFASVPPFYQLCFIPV
Procedure: as §3

[9] = biological target: T4, CYP2D6 (Homo sapiens, UniProt P10635); experiment: Cocktail CYP inhibition in human liver microsomes, CYP2D6 (metoprolol); assay type: in vitro ADME; conditions: cocktail method, read-out: IC50 values, CYP2D6 in HLMs
T4 construct: containing 100 μL RLMs or HLMs; tissue Research Institute for Liver Diseases (Shanghai) Co., Ltd; host or cells: pooled human liver microsomes
T4 sequence (P10635 whole entry): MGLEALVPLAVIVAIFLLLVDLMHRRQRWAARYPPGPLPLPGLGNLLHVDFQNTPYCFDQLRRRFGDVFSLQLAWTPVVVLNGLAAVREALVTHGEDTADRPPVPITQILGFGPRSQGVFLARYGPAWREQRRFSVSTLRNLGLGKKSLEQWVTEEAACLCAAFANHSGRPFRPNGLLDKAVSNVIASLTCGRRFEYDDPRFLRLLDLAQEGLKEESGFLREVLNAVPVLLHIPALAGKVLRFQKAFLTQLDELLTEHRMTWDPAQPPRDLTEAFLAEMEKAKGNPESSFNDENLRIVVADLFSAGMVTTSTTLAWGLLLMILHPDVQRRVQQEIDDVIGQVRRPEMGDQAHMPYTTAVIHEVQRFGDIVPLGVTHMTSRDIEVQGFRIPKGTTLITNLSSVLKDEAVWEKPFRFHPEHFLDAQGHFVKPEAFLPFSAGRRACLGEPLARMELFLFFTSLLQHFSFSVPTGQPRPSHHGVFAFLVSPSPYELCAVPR
Procedure: as §3

[10] = biological target: T5, CYP2C11 (Rattus norvegicus, UniProt P08683); experiment: Cocktail CYP inhibition in rat liver microsomes, CYP2C11 (tolbutamide); assay type: in vitro ADME; conditions: cocktail method, read-out: IC50 values, CYP2C11 in RLMs
T5 construct: containing 100 μL RLMs or HLMs; tissue Research Institute for Liver Diseases (Shanghai) Co., Ltd; host or cells: male SD rat liver microsomes
T5 sequence (P08683 whole entry): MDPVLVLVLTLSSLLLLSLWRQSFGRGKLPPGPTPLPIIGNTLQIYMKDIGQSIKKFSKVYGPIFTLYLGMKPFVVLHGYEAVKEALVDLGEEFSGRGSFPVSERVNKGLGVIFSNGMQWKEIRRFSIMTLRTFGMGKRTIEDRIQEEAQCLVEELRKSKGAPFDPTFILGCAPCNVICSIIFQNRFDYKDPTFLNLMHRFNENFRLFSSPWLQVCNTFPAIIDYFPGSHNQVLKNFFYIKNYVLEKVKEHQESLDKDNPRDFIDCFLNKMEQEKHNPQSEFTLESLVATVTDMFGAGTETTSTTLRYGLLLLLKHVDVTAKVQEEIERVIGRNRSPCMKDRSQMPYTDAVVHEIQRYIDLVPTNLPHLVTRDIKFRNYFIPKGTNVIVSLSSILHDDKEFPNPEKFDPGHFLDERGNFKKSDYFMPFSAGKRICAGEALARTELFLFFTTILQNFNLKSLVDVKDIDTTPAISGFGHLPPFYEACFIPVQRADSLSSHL
Procedure: as §3

[11] = parameters: method as in PMID 30813235; conditions: rats, intravenous administration; cited from earlier work
[12] = system: PXR mRNA; experiment: PXR mRNA expression in Hep G2 cells (real-time PCR); assay type: cell-based, human; conditions: 4 and 12 h, three doses
Procedure: as §1

[13] = 2 and 4 h, 4.98, 0.16 and 0.08 mM

C=CC1(C)CC(OC(=O)CSc2nc(N)cc(N)n2)C2(C)C(C)CCC3(CCC(=O)C32)C(C)C1O (centres unmarked) [DPTM, 14-O-[(4,6-Diaminopyrimidine-2-yl)thioacetyl] mutilin]
PPARα mRNA expression versus control [1]: significantly increase | CYP1A2 mRNA expression versus control [2, 13]: significantly increase | CYP1A2 mRNA expression versus control ([2]; 12 h): significantly lowered | IC50 [3]: 10 ± 2 mM | viability at 24 h, 4.98 mM [4]: 79% | IC50 [5]: 67 ± 6 µM | IC50 [6]: 61 ± 8 µM | AhR mRNA content versus control [7, 13]: significantly increased | AhR mRNA content versus control ([7]; 12 h): no effect | IC50 [8]: > 100 µM | IC50 [9]: > 100 µM | IC50 [10]: > 100 µM | half-life (t1/2) [11]: 1.7 to 1.9 h | PXR mRNA expression versus control [12]: significantly increased
